Values belong to the compound of their own block, whether it stands above or below them.
How the values were obtained:
Test in all cases: Ba/F3 drug screening, Cell Titer Glo, IC50 Mut/WT
Type in all cases: cell-based
[1] = target: T1, EGFR S784F (Homo sapiens, UniProt P00533, S784F); settings: Classical-Like, 72 hours
T1 construct: expressed in transfected cells; host or cells: Ba/F3 cells, retroviral pBabe-Puro vector (vector made by GeneScript from EGFR WT)

[2] = target: T2, EGFR L861Q (Homo sapiens, UniProt P00533, L861Q); settings: Classical-Like, 72 hours
T2 construct: expressed in transfected cells; host or cells: Ba/F3 cells, retroviral pBabe-Puro vector
Description: Data represent the ratio of the IC50 value for a given TKI for cells with a classical-like EGFR mutation to the IC50 value for cells with wildtype EGFR.
(§1) Ba/F3 cell generation, drug screening, and IC50 approximations. Ba/F3 cells were obtained as a gift from Dr. Gordon Mills (MD Anderson Cancer Center), and maintained in RPMI (Sigma) containing 10% FBS, 1% penicillin/streptomycin, and 10 ng/ml recombinant mIL-3 (R&D Biosystems). To establish stable Ba/F3 cell lines, Ba/F3 cells were transduced with retroviruses containing mutant EGFR plasmids for 12-24 hours.
After 48-72 hours of transduction, 2 μg/ml puromycin (Invitrogen) was added to Ba/F3 cell lines in complete RPMI. To select for EGFR positive cell lines, cells were stained with PE-EGFR (Biolegend) and sorted by FACS. After sorting, EGFR positive cells were maintained in RPMI containing 10% FBS, 1% penicillin/streptomycin, and 1 ng/ml EGF to support cell viability. […] Shortly, cells were plated in 384-well plates (Greiner Bio-One) at 2000-3000 cells per well in technical triplicate. Seven different concentrations of TKIs or DMSO vehicle were added to reach a final volume of 40 μL per well. After 72 hours, 11 μL of Cell Titer Glo (Promega) was added to each well. Plates were incubated for a minimum of 10 minutes, and bioluminescence was determined using a FLUOstar OPTIMA plate reader (BMG LABTECH). Raw bioluminescence values were normalized to DMSO control treated cells, and values were plotted in GraphPad Prism. […] Drug screens were performed in technical triplicate on each plate and either duplicate or triplicate biological replicates.

[3] = target: T3, EGFR S811F (Homo sapiens, UniProt P00533, S811F); settings: Classical-Like, 72 hours
T3 construct: expressed in transfected cells; host or cells: Ba/F3 cells, retroviral pBabe-Puro vector (vector made by GeneScript from EGFR WT)

[4] = target: T4, EGFR T790M (Homo sapiens, UniProt P00533, T790M); settings: T790M-like-3S, 72 hours
T4 construct: expressed in transfected cells; host or cells: Ba/F3

[5] = target: T5, EGFR L858R/T790M (Homo sapiens, UniProt P00533, L858R/T790M); settings: T790M-like-3S, 72 hours
T5 construct: expressed in transfected cells; host or cells: Ba/F3
Description: (§2) Data represent the ratio of the IC50 value for a given TKI for cells with a T790M-like-3S EGFR mutation to the IC50 value for cells with wildtype EGFR.
as §1
(§3) After 48-72 hours of transduction, 2 μg/ml puromycin (Invitrogen) was added to Ba/F3 cell lines in complete RPMI. To select for EGFR positive cell lines, cells were stained with PE-EGFR (Biolegend) and sorted by FACS. After sorting, EGFR positive cells were maintained in RPMI containing 10% FBS, 1% penicillin/streptomycin, and 1 ng/ml EGF to support cell viability. Drug screening was performed as previously described^41,42. Shortly, cells were plated in 384-well plates (Greiner Bio-One) at 2000-3000 cells per well in technical triplicate. Seven different concentrations of TKIs or DMSO vehicle were added to reach a final volume of 40 μL per well. After 72 hours, 11 μL of Cell Titer Glo (Promega) was added to each well. Plates were incubated for a minimum of 10 minutes, and bioluminescence was determined using a FLUOstar OPTIMA plate reader (BMG LABTECH). Raw bioluminescence values were normalized to DMSO control treated cells, and values were plotted in GraphPad Prism. […] Drug screens were performed in technical triplicate on each plate and either duplicate or triplicate biological replicates.

[6] = target: T6, EGFR G719A T790M (Homo sapiens, UniProt P00533, G719A/T790M); settings: T790M-like-3S, 72 hours
T6 construct: expressed in transfected cells; host or cells: Ba/F3
Description: as §2, §1, §3

[7] = target: T7, EGFR G719S T790M (Homo sapiens, UniProt P00533, G719S/T790M); settings: T790M-like-3S, 72 hours
T7 construct: expressed in transfected cells; host or cells: Ba/F3

[8] = target: T8, EGFR S768I/T790M (Homo sapiens, UniProt P00533, S768I/T790M); settings: T790M-like-3S, 72 hours
T8 construct: expressed in transfected cells; host or cells: Ba/F3

[9] = target: T9, EGFR L858R T790M L792H (Homo sapiens, UniProt P00533, L792H/L858R/T790M); settings: T790M-like-3S, 72 hours
T9 construct: expressed in transfected cells; host or cells: Ba/F3
Description: as §2, §1, §3

[10] = target: T10, EGFR Ex19del T790M L718V (Homo sapiens, UniProt P00533, DEL746-750/L718V/T790M); settings: T790M-like-3S, 72 hours
T10 construct: expressed in transfected cells; host or cells: Ba/F3

[11] = target: T11, EGFR Ex19del/T790M/L792H (Homo sapiens, UniProt P00533, DEL746-750/L792H/T790M); settings: T790M-like-3R, 72 hours
T11 construct: expressed in transfected cells; host or cells: Ba/F3
Description: Data represent the ratio of the IC50 value for a given TKI for cells with a T790M-like-3R EGFR mutation to the IC50 value for cells with wildtype EGFR.
as §1
After 48-72 hours of transduction, 2 μg/ml puromycin (Invitrogen) was added to Ba/F3 cell lines in complete RPMI. To select for EGFR positive cell lines, cells were stained with PE-EGFR (Biolegend) and sorted by FACS. After sorting, EGFR positive cells were maintained in RPMI containing 10% FBS, 1% penicillin/streptomycin, and 1 ng/ml EGF to support cell viability. […] Shortly, cells were plated in 384-well plates (Greiner Bio-One) at 2000-3000 cells per well in technical triplicate. Seven different concentrations of TKIs or DMSO vehicle were added to reach a final volume of 40 μL per well. After 72 hours, 11 μL of Cell Titer Glo (Promega) was added to each well. Plates were incubated for a minimum of 10 minutes, and bioluminescence was determined using a FLUOstar OPTIMA plate reader (BMG LABTECH). Raw bioluminescence values were normalized to DMSO control treated cells, and values were plotted in GraphPad Prism. […] Drug screens were performed in technical triplicate on each plate and either duplicate or triplicate biological replicates. […] Statistical differences between groups were determined by ANOVA as described in the figure legends.

[12] = target: T12, EGFR E709A G719S (Homo sapiens, UniProt P00533, E709A/G719S)
T12 construct: expressed in transfected cells; host or cells: Ba/F3

[13] = target: T13, EGFR E709A (Homo sapiens, UniProt P00533, E709A)
T13 construct: expressed in transfected cells; host or cells: Ba/F3

[14] = target: T14, EGFR G724S (Homo sapiens, UniProt P00533, G724S)
T14 construct: expressed in transfected cells; host or cells: Ba/F3

[15] = test system: EGFR I740dupIPVAK
[16] = target: T15, EGFR L747P (Homo sapiens, UniProt P00533, L747P)
T15 construct: expressed in transfected cells; host or cells: Ba/F3

[17] = target: T16, EGFR S768I (Homo sapiens, UniProt P00533, S768I)
T16 construct: expressed in transfected cells; host or cells: Ba/F3

[18] = target: T17, EGFR S768I/V769L (Homo sapiens, UniProt P00533, S768I/V769L)
T17 construct: host or cells: Ba/F3
Description: (§4) Data represent the ratio of the IC50 value for a given TKI for cells with a PACC EGFR mutation to the IC50 value for cells with wildtype EGFR.
as §1, §3

[19] = target: T18, EGFR S768I V774M (Homo sapiens, UniProt P00533, S768I/V774M)
T18 construct: host or cells: Ba/F3
Description: as §4, §1, §3

[20] = target: T19, EGFR V769L (Homo sapiens, UniProt P00533, V769L)
T19 construct: expressed in transfected cells; host or cells: Ba/F3

[21] = target: T20, EGFR V774M (Homo sapiens, UniProt P00533, V774M)
T20 construct: host or cells: Ba/F3

[22] = target: T21, EGFR R776C (Homo sapiens, UniProt P00533, R776C)
T21 construct: host or cells: Ba/F3

[23] = target: T22, EGFR L858R/L718V (Homo sapiens, UniProt P00533, L718V/L858R)
T22 construct: host or cells: Ba/F3

[24] = target: T23, EGFR L858R L718Q (Homo sapiens, UniProt P00533, L718Q/L858R)
T23 construct: host or cells: Ba/F3

[25] = target: T24, EGFR Ex19del L718Q (Homo sapiens, UniProt P00533, DEL746-750/L718Q)
T24 construct: expressed in transfected cells; host or cells: Ba/F3
Description: as §4, §1, §3

[26] = target: T25, EGFR N771dupN (Homo sapiens, UniProt P00533, DUP771-771); settings: Ex20, 72 hours
T25 construct: expressed in transfected cells; host or cells: Ba/F3 cells, retroviral pBabe-Puro vector

[27] = target: T26, EGFR N771dupN G724S (Homo sapiens, UniProt P00533, DUP771-771/G724S); settings: Ex20, 72 hours
T26 construct: expressed in transfected cells; host or cells: Ba/F3 cells, retroviral pBabe-Puro vector (vector made by GeneScript from EGFR G724S, c.2313_2314insAAC)
Description: Data represent the ratio of the IC50 value for a given TKI for cells with an ex20ins EGFR mutation to the IC50 value for cells with wildtype EGFR.
as §1
After 48-72 hours of transduction, 2 μg/ml puromycin (Invitrogen) was added to Ba/F3 cell lines in complete RPMI. To select for EGFR positive cell lines, cells were stained with PE-EGFR (Biolegend) and sorted by FACS. After sorting, EGFR positive cells were maintained in RPMI containing 10% FBS, 1% penicillin/streptomycin, and 1 ng/ml EGF to support cell viability. Drug screening was performed as previously described^41,42. Shortly, cells were plated in 384-well plates (Greiner Bio-One) at 2000-3000 cells per well in technical triplicate. Seven different concentrations of TKIs or DMSO vehicle were added to reach a final volume of 40 μL per well. After 72 hours, 11 μL of Cell Titer Glo (Promega) was added to each well. Plates were incubated for a minimum of 10 minutes, and bioluminescence was determined using a FLUOstar OPTIMA plate reader (BMG LABTECH). Raw bioluminescence values were normalized to DMSO control treated cells, and values were plotted in GraphPad Prism. […] Drug screens were performed in technical triplicate on each plate and either duplicate or triplicate biological replicates. […] Statistical differences between groups were determined by ANOVA as described in the figure legends.

ratio of IC50 for cells with mutant EGFR to IC50 for cells with wildtype EGFR (Mut/WT) [1]: 0.245
ratio of IC50 for cells with mutant EGFR to IC50 for cells with wildtype EGFR (Mut/WT) [2]: 0.05622
ratio of IC50 for cells with mutant EGFR to IC50 for cells with wildtype EGFR (Mut/WT) [3]: 0.01158
ratio of IC50 for cells with mutant EGFR to IC50 for cells with wildtype EGFR (Mut/WT) [4]: 0.2517
ratio of IC50 for cells with mutant EGFR to IC50 for cells with wildtype EGFR (Mut/WT) [5]: 0.0336
ratio of IC50 for cells with mutant EGFR to IC50 for cells with wildtype EGFR (Mut/WT) [6]: 0.00108
ratio of IC50 for cells with mutant EGFR to IC50 for cells with wildtype EGFR (Mut/WT) [7]: 0.003464
ratio of IC50 for cells with mutant EGFR to IC50 for cells with wildtype EGFR (Mut/WT) [8]: 0.5236
ratio of IC50 for cells with mutant EGFR to IC50 for cells with wildtype EGFR (Mut/WT) [9]: 0.0005009
ratio of IC50 for cells with mutant EGFR to IC50 for cells with wildtype EGFR (Mut/WT) [10]: 0.4667
ratio of IC50 for cells with mutant EGFR to IC50 for cells with wildtype EGFR (Mut/WT) [11]: 1.105
ratio of the IC50 value for cells with a PACC EGFR mutation to the IC50 value for cells with wildtype EGFR ([12]; Ba/F3 cells, EGFR E709A G719S (PACC), Mut/WT): 0.06878
ratio of the IC50 value for cells with a PACC EGFR mutation to the IC50 value for cells with wildtype EGFR ([13]; Ba/F3 cells, EGFR E709A (PACC), Mut/WT): 0.2759
ratio of the IC50 value for cells with a PACC EGFR mutation to the IC50 value for cells with wildtype EGFR ([14]; Ba/F3 cells, EGFR G724S (PACC), Mut/WT): 26.17
ratio of the IC50 value for cells with a PACC EGFR mutation to the IC50 value for cells with wildtype EGFR ([15]; Ba/F3 cells, EGFR I740dupIPVAK (PACC), Mut/WT): 0.2883
ratio of the IC50 value for cells with a PACC EGFR mutation to the IC50 value for cells with wildtype EGFR ([16]; Ba/F3 cells, EGFR L747P (PACC), Mut/WT): 2.92
ratio of the IC50 value for cells with a PACC EGFR mutation to the IC50 value for cells with wildtype EGFR ([17]; Ba/F3 cells, EGFR S768I (PACC), Mut/WT): 1.26
ratio of the IC50 value for cells with a PACC EGFR mutation to the IC50 value for cells with wildtype EGFR ([18]; Ba/F3 cells, EGFR S768I/V769L (PACC), Mut/WT): 0.666
ratio of the IC50 value for cells with a PACC EGFR mutation to the IC50 value for cells with wildtype EGFR ([19]; Ba/F3 cells, EGFR S768I V774M (PACC), Mut/WT): 0.7678
ratio of the IC50 value for cells with a PACC EGFR mutation to the IC50 value for cells with wildtype EGFR ([20]; Ba/F3 cells, EGFR V769L (PACC), Mut/WT): 1.618
ratio of the IC50 value for cells with a PACC EGFR mutation to the IC50 value for cells with wildtype EGFR ([21]; Ba/F3 cells, EGFR V774M (PACC), Mut/WT): 0.9635
ratio of the IC50 value for cells with a PACC EGFR mutation to the IC50 value for cells with wildtype EGFR ([22]; Ba/F3 cells, EGFR R776C (PACC), Mut/WT): 1.504
ratio of the IC50 value for cells with a PACC EGFR mutation to the IC50 value for cells with wildtype EGFR ([23]; Ba/F3 cells, EGFR L858R/L718V (PACC), Mut/WT): 2.619
ratio of the IC50 value for cells with a PACC EGFR mutation to the IC50 value for cells with wildtype EGFR ([24]; Ba/F3 cells, EGFR L858R L718Q (PACC), Mut/WT): 3.064
ratio of the IC50 value for cells with a PACC EGFR mutation to the IC50 value for cells with wildtype EGFR ([25]; Ba/F3 cells, EGFR Ex19del L718Q (PACC), Mut/WT): 0.08238
Structure (SMILES): C=CC(=O)Nc1cc(Nc2nccc(-n3cc(CN(C)C)c(-c4ccccc4)n3)n2)c(OC)cc1N1CCOCC1 [Lazertinib]

Structure (SMILES): CNC(=O)CN1CCC(Oc2cc3c(Nc4cccc(Cl)c4F)ncnc3cc2OC)CC1 [Sapatinib]
ratio of IC50 for cells with mutant EGFR to IC50 for cells with wildtype EGFR (Mut/WT) [1]: 0.08508
ratio of IC50 for cells with mutant EGFR to IC50 for cells with wildtype EGFR (Mut/WT) [2]: 0.01265
ratio of IC50 for cells with mutant EGFR to IC50 for cells with wildtype EGFR (Mut/WT) [3]: 0.006549
ratio of IC50 for cells with mutant EGFR to IC50 for cells with wildtype EGFR (Mut/WT) [26]: 1.24
ratio of IC50 for cells with mutant EGFR to IC50 for cells with wildtype EGFR (Mut/WT) [27]: 1.103
ratio of IC50 for cells with mutant EGFR to IC50 for cells with wildtype EGFR (Mut/WT) [4]: 70.5
ratio of IC50 for cells with mutant EGFR to IC50 for cells with wildtype EGFR (Mut/WT) [5]: 38.86
ratio of IC50 for cells with mutant EGFR to IC50 for cells with wildtype EGFR (Mut/WT) [6]: 54.78
ratio of IC50 for cells with mutant EGFR to IC50 for cells with wildtype EGFR (Mut/WT) [7]: 54.78
ratio of IC50 for cells with mutant EGFR to IC50 for cells with wildtype EGFR (Mut/WT) [8]: 54.78
ratio of IC50 for cells with mutant EGFR to IC50 for cells with wildtype EGFR (Mut/WT) [9]: 54.78
ratio of IC50 for cells with mutant EGFR to IC50 for cells with wildtype EGFR (Mut/WT) [11]: 451.7
ratio of IC50 for cells with mutant EGFR to IC50 for cells with wildtype EGFR (Mut/WT) ([12]; PACC, E709A G719S, Ba/F3, 72 hours): 0.02227
ratio of IC50 for cells with mutant EGFR to IC50 for cells with wildtype EGFR (Mut/WT) ([13]; PACC, E709A, Ba/F3, 72 hours): 0.3243
ratio of IC50 for cells with mutant EGFR to IC50 for cells with wildtype EGFR (Mut/WT) ([14]; PACC, G724S, Ba/F3, 72 hours): 0.141
ratio of IC50 for cells with mutant EGFR to IC50 for cells with wildtype EGFR (Mut/WT) ([15]; PACC, I740dupIPVAK, Ba/F3, 72 hours): 0.008351
ratio of IC50 for cells with mutant EGFR to IC50 for cells with wildtype EGFR (Mut/WT) ([16]; PACC, L747P, Ba/F3, 72 hours): 0.03076
ratio of IC50 for cells with mutant EGFR to IC50 for cells with wildtype EGFR (Mut/WT) ([17]; PACC, S768I, Ba/F3, 72 hours): 0.1883
ratio of IC50 for cells with mutant EGFR to IC50 for cells with wildtype EGFR (Mut/WT) ([18]; PACC, S768I/V769L, Ba/F3, 72 hours): 0.2596
ratio of IC50 for cells with mutant EGFR to IC50 for cells with wildtype EGFR (Mut/WT) ([19]; PACC, S768I V774M, Ba/F3, 72 hours): 0.2648
ratio of IC50 for cells with mutant EGFR to IC50 for cells with wildtype EGFR (Mut/WT) ([20]; PACC, V769L, Ba/F3, 72 hours): 0.1992
ratio of IC50 for cells with mutant EGFR to IC50 for cells with wildtype EGFR (Mut/WT) ([21]; PACC, V774M, Ba/F3, 72 hours): 0.05575
ratio of IC50 for cells with mutant EGFR to IC50 for cells with wildtype EGFR (Mut/WT) ([22]; PACC, R776C, Ba/F3, 72 hours): 0.02012
ratio of IC50 for cells with mutant EGFR to IC50 for cells with wildtype EGFR (Mut/WT) ([23]; PACC, L858R/L718V, Ba/F3, 72 hours): 0.05575
ratio of IC50 for cells with mutant EGFR to IC50 for cells with wildtype EGFR (Mut/WT) ([24]; PACC, L858R L718Q, Ba/F3, 72 hours): 0.1961
ratio of IC50 for cells with mutant EGFR to IC50 for cells with wildtype EGFR (Mut/WT) ([25]; PACC, Ex19del L718Q, Ba/F3, 72 hours): 0.7162

Source: patent US20240384350A1, “METHODS OF TREATING CANCER WITH KINASE INHIBITORS” (BOARD OF REGENTS, THE UNIVERSITY OF TEXAS SYSTEM, priority 2021, published 2024)
